The text below walks through data of publication PMC9599641, “TNP Analogues Inhibit the Virulence Promoting IP3-4 Kinase Arg1 in the Fungal Pathogen Cryptococcus neoformans” (Biomolecules, 2022).

Structures are written as SMILES. Entries after “also recorded” stand apart in the source; their conditions may differ.

For data set [1], the system named is rat IPMK. Set-up: method as in PMID 24670057. The conditions noted are these: at a concentration of 10 µM; cited from earlier work.
Data set [2] can be described thus: Solubility observations. Format: physicochemical. The conditions noted are these: SPR running buffer with 5% DMSO; KD could not be determined.
Data set [3] relates to CaIpk2 (IP3-4K from C. albicans). The data set is described as follows: Kinase-Glo enzyme inhibition assay, recombinant CaIpk2. The format is biochemical, Candida albicans. The note with it: tested up to 50 µM; 10 µM ATP, 25 µM IP3. On the procedure:
(§1) The 2,6-disubstituted purine compounds are ATP-competitive IPK inhibitors. […] The amount of IP3 and kinase used for each recombinant enzyme was determined following the manufacturer’s instructions, and this concentration was used to assess the inhibitory properties of TNP analogues against each of the recombinant enzymes.
The analogues were dissolved in DMSO. For the assay, the inhibitors were added to the reaction mixture to achieve a final concentration of 50 µM in 5% DMSO (1:20 dilution). To achieve inhibitor concentrations lower than 50 µM in the assay, the inhibitor stock was first serially diluted two-fold in DMSO and added to the reaction mixture, to achieve concentrations ranging between 0.8 μM and 50 µM in 5% DMSO. Once all analogues and their dilution series had been added, the reaction was started by adding an optimal amount of recombinant IP3-4K enzyme. The reaction was stopped after 10-min incubation at room temperature by adding a 50 µL of Kinase-Glo® reagent. The mixture was incubated at room temperature in the dark for 10–15 min. Luminescence (RLU) was measured using a SpectraMax iD5 and an integration time of 0.5 s. […]
Next, we determined the inhibitory properties of TNP. […] The amount of kinase that produced luminescence values in the linear range of the kinase titration curve was deemed to be the optimal kinase amount.

Data set [4] relates to CnArg1 (IP3-4K from C. neoformans). The data set is described as follows: Kinase-Glo enzyme inhibition assay, recombinant CnArg1. Format: biochemical. The conditions noted are these: selectivity, ratio higher than 1 = more selective for CnArg1. On the procedure:
as §1
(§2) The analogues were dissolved in DMSO. For the assay, the inhibitors were added to the reaction mixture to achieve a final concentration of 50 µM in 5% DMSO (1:20 dilution). To achieve inhibitor concentrations lower than 50 µM in the assay, the inhibitor stock was first serially diluted two-fold in DMSO and added to the reaction mixture, to achieve concentrations ranging between 0.8 μM and 50 µM in 5% DMSO. Once all analogues and their dilution series had been added, the reaction was started by adding an optimal amount of recombinant IP3-4K enzyme. The reaction was stopped after 10-min incubation at room temperature by adding a 50 µL of Kinase-Glo® reagent. The mixture was incubated at room temperature in the dark for 10–15 min. Luminescence (RLU) was measured using a SpectraMax iD5 and an integration time of 0.5 s. Percent enzyme activity was defined as (RLUnegative − RLUsample)/(RLUnegative − RLUpositive) × 100. ‘Positive’ refers to 100% enzyme activity (no inhibitor used as the positive control), while ‘negative’ refers to 0% enzyme activity (no enzyme used as the negative control).
(§3) Next, we determined the inhibitory properties of TNP. TNP is an ATP-competitive inhibitor [34]. […] IP3 and enzyme concentrations were also optimised following the manufacturer’s instructions. […] This optimal amount of IP3 was then used to test varying concentrations of the kinase ranging from 0 to 20 ng/µL. The amount of kinase that produced luminescence values in the linear range of the kinase titration curve was deemed to be the optimal kinase amount.

The test system of data set [5] is human IP3K. Set-up: method as in PMID 12210991. The conditions noted are these: read-out: IC50 against IP3K; cited from earlier work.
In data set [6] the test system is IP6K. Set-up: method as in PMID 19208622. The note with it: read-out: IC50 against IP6K; cited from earlier work.
In data set [7] the target is CnArg1 (Cryptococcus neoformans var. grubii, UniProt J9W3G0). The experiment in a line: Surface plasmon resonance (SPR) binding to immobilised CnArg1. The note with it: 6.25–200 µM, 10 °C, steady-state affinity, mean ± SEM. On the procedure: SPR was carried out on a Biacore T200 (Cytiva, Marlborough, MA, USA). A streptavidin surface was prepared by amine coupling streptavidin to a CM5 chip using standard procedures in 20 mM HEPES, 150 mM NaCl pH 7.5 at 37 °C. Briefly, the surface was activated by injection of 1:1 NHS:EDC (N-ethyl-N’-(3-(dimethylamino)propyl)carbodiimide/N-hydroxysuccinimide) followed by a 7-min injection of 100 µg/mL streptavidin in 10 mM sodium acetate (pH 4.5) at a flow rate of 2 µL/min. Unreacted groups on the surface were blocked by injection of 1 M ethanolamine (pH 8.0). Purified recombinant CnArg1 was N-terminally biotinylated and immobilised to a level of ~4000 RU onto the streptavidin surface at 25 °C in 20 mM HEPES, 200 mM NaCl, 5 mM MgCl2 (pH 7.5) at a flow rate of 2 µL/min.
For analysis, compounds were prepared to 50 mM in 100% DMSO and diluted to the desired concentration in SPR running buffer; 20 mM HEPES (pH 7.5), 200 mM NaCl, 5 mM MgCl2, 5% DMSO. Analysis was carried out using multi-cycle kinetics over a compound concentration range of 6.25–200 µM in running buffer at 10 °C, with an association time of 60 s and a dissociation time of 120 s. Data were reference subtracted, and a solvent correction applied. Analysis was carried out using Biacore T200 Evaluation Software and all data fit to a 1:1 Langmuir binding isotherm.

For data set [8], the target named is CnArg1 (IP3-4K from C. neoformans) (Cryptococcus neoformans var. grubii, UniProt J9W3G0). The experiment in a line: Kinase-Glo enzyme inhibition assay, recombinant CnArg1. The note with it: 10 µM ATP, 50 µM IP3, 2.5 ng/µL enzyme, 10 min, room temperature, 5% DMSO; mean ± SEM. Format: biochemical. On the procedure:
as §1, §2, §3

Data set [9] has as its target HsIPMK (Homo sapiens, UniProt Q8NFU5). The data set is described as follows: Kinase-Glo enzyme inhibition assay, recombinant HsIPMK. Note: 6 ng/µL enzyme. Format: biochemical. Set-up: GST (N, cleaved yes); made in house; host or cells: E. coli BL21 (DE3); plasmid made by GenScript. On the procedure:
as §1, §2, §3

HsIPMK, sequence (Q8NFU5 whole entry): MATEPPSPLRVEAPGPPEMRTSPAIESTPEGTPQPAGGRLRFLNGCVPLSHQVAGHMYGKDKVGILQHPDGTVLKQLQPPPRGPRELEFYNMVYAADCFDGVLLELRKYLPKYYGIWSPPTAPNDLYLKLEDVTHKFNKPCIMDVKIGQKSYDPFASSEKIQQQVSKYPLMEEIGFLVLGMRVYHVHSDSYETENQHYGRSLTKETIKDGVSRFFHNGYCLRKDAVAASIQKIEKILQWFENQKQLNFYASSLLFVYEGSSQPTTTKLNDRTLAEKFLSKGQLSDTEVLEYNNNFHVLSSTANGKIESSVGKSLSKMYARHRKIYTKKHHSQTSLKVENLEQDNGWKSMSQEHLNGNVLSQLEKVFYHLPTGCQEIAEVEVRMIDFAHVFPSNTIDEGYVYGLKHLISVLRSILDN
CnArg1 (IP3-4K from C. neoformans) (Cryptococcus neoformans var. grubii, UniProt J9W3G0), sequence (J9W3G0 entry or part of it): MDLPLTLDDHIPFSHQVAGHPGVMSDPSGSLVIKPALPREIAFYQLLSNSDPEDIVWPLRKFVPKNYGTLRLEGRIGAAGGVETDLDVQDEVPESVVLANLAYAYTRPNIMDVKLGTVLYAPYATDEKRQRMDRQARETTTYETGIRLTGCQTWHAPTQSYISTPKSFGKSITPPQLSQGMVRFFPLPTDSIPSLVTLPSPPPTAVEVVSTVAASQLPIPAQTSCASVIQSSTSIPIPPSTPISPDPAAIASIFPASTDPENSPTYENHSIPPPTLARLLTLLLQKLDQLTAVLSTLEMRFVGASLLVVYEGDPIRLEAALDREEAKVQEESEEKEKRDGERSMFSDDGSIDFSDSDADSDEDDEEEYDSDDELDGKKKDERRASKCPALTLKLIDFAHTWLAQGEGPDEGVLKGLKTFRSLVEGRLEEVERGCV
CnArg1, sequence (J9W3G0 entry or part of it): as above

Turning to `O=[N+]([O-])c1ccc(CNc2nc(NCc3cccc(C(F)(F)F)c3)nc3[nH]cnc23)cc1` [TNP, N2-(m-trifluorobenzylamino)-N6-(p-nitrobenzylamino)purine], in [1], the “Inhibition of rat IPMK” value is on record as “does not inhibit”. Besides, in [2], the “Solubility in SPR analysis” value is on record as “Poor solubility—ND”. For the same compound, the “Inhibition of CaIpk2” value in data set [3] is listed as “did not inhibit; also recorded: no inhibitory activity”. Besides, in data set [4], the “HsIPMK/CnArg1 IC50 ratio” value is 0.3. The results for the IC50 in data set [5] and in data set [6] were 10 µM and 0.47 µM, respectively.

For the compound `COCCNc1nc(Nc2ccc(O)cc2)nc2[nH]cnc12` [Compound 37], the KD result in [7] is “No binding”. Also, the IC50 in [8] worked out at 17 ± 2 µM; in data set [9] it was 7 ± 1 µM. Further, the “HsIPMK/CnArg1 IC50 ratio” value in data set [4] worked out at 0.4.
